# Assay results published in US8329416B2, “Stabilized standards for busulfan immunoassay” (Saladax Biomedical Inc., priority 2008, dated 2012).
# Like-named read-outs stand apart in the source and are kept apart here.
# Columns and labels:
# [1] = stability tests of amide of formula II standards in solution; format: physicochemical; conditions: for time stable: solutions 590 ng/ml to 4720 ng/ml
# antibody to busulfan = experiment: direct competitive ELISA for busulfan (busulfan-HRP conjugate, antibody-coated plate); format: binding
# Description: For the purpose of determining amide of formula II equivalents to busulfan of formula I and assaying busulfan with the amide standards by Enzyme-Linked Immunosorbent Assay (ELISA) method, polystyrene microtiter plates optimized for protein binding and containing 96 well per plate were used. Each well was coated with an antibody to busulfan produced as described in U.S. Pat. No. 7,238,024 Example 7, by adding 100 μL of antibody at 7.5 μg/mL in 0.05M sodium bicarbonate, pH=9.6 and then were blocked with 400 μL of 5% sucrose, 0.2% sodium caseinate solution for 30 minutes at room temperature. After removal of the post-coat solution the plates dried at 37° C. overnight.
# The cross-reactivity of the amide was determined in a direct competitive Enzyme-Linked Immunosorbent Assay (ELISA) for busulfan. This method for measuring busulfan concentrations was performed with the microtiter plates that were sensitized with busulfan antibody described in Example 3. The amide stock solution at 6 mg/mL DMF was serially diluted 5000 ng/mL and 500 ng/mL in a buffer comprising 0.02 M sodium phosphate, 0.15 M NaCl, 0.1% BSA, 0.01% Thimerosal, pH 7.2. To perform the assay 30 μL of busulfan standards from Example 1, and 30 μL of amide of formula II dilutions were pre-diluted in a 96-well plate by the addition of 180 μL of sample pre-dilution buffer consisting of 0.02 M sodium phosphate, 0.15 M NaCl, 0.5% Dextran Sulfate, 0.01% Thimerosal, pH 7.2. 50 μL of all prediluted samples were added to the antibody coated microtiter plate of Example 3. After addition of the samples 50 μL of a busulfan-HRP conjugate at 100 ng/mL in a buffer comprising to 0.02 M sodium phosphate, 0.15 M NaCl, 0.2% BSA, 0.1% ANS (8-anilino-1-naphthalene sulfonic acid), 15 ppm ProClin® Preservative 300 was added. During the following 10 minute incubation (R.T., with shaking) there is a competition between sample (busulfan or amide) and busulfan-HRP for binding with the antibody in the well. Following this incubation the wells of the plate were washed three times with 0.02 M TRIS, 0.9% NaCl, 0.5% polyethylene glycol sorbitan monooleate TWEEN® 80 and 0.001% Thimerosal, pH 7.8 to remove any material that was not bound. To detect the amount of busulfan-HRP bound to the busulfan antibody in the wells, 100 μL of TMB (TMB Liquid Substrate) a substrate for HRP was added. To develop a measurable color in the wells there was a 10 second incubation (R.T., with shaking). Following the incubation 50 μL of stop solution comprising 1.5% sodium fluoride in di H2O was added to each well to stop the color development and after 10 seconds of shaking the absorbance was determined at 650 nm with a 96-well plate reader. The amount of busulfan-HRP in a well was proportional to the absorbance measured and inversely proportional to the amount of busulfan of formulated or amide of formulated in the sample. The absorbance of the color in the wells containing busulfan was compared to that with no busulfan analyte and a standard curve was generated. […] The cross-reactivity was used to determine the concentration of amide necessary to produce a calibration curve equivalent to that of busulfan (Example 6).
# Using the busulfan antibody plates (Example 3) in a direct competitive Enzyme-Linked Immunosorbent Assay (ELISA) for busulfan described in Example 4, the GC-MS verified busulfan calibrators (Example 1) were used to generate a curve from 75 ng/mL to 2000 ng/mL and the amide calibrators were read off this standard curve as unknown samples. […] The X axis represents the verified busulfan concentration and the Y axis is the amide standards expressed as busulfan equivalence factor (amide concentration value x 0.107=busulfan equivalence factor e.g. 1410 ng/mL amide x 0.107=150 ng/mL busulfan equivalence).
# [2] = tested on: antibodies specific for busulfan; experiment: busulfan immunoassay of U.S. Pat. No. 7,148,024; format: binding; conditions: across the entire dose response curve
# From the text: In accordance with a preferred embodiment of this invention, a competitive assay is provided utilizing the reagents and procedure disclosed in U.S. Pat. No. 7,148,024, whose disclosure is incorporated by reference In this preferred procedure, the preferred procedure as set forth in U.S. Pat. No. 7,148,024, utilized in its method antibodies produced from conjugates of an immunogenic polyamine polymer with a compound of the formula III-A:
# [drawing 4] • wherein A′ is lower alkylene or lower alkenylene; • X′, Y, X, p and z are as above or mixtures thereof.
# The fact that known concentrations of the amide of formula II can be calibrated with known concentrations of busulfan by means of a calibration assay can be seen from FIG. 3. […] These measured results are plotted against their relative concentrations. […] The amount or concentration of busulfan can be determined from the measured amount or concentration standards containing the amide of formula II by multiplying the measured results obtained from these amide standards by previously determined calibration factor which in the case of FIG. 3 is 0.107. In this manner one obtains the amount or concentration of busulfan in the samples based on the measured results with respect to the amide.
# [3] = decomposition of busulfan standards in aqueous solution over time; format: physicochemical; conditions: FIG. 1
# Description: In FIG. 1 a plurality of aqueous solutions of busulfan having varying concentrations of 100 ng/ml, 600 ng/ml, and 1200 ng/ml are incubated at room temperature. […] At room temperature for 5 days, more than 60% of the busulfan is decomposed.
# [4] = cited from earlier work
# [5] = tested on: antibodies specific for busulfan; conditions: antibodies from immunogens of formulae III-A and III-B; cited from earlier work
smiles,measurement,setting,value
CS(=O)(=O)NCCCCNS(C)(=O)=O [amide of formula II],time stable,"[1]; 4° C., FIG. 2",at least 4 weeks
same,time stable,"[1]; 45° C., FIG. 2",at least 4 weeks
same,decomposition on storage,"[1]; stored at 4° C. and 45° C. for at least 4 weeks, FIG. 2",no decomposition
same,storage of amide solutions without significant deterioration,[1]; without any special precautions,more than one year
same,calibration factor (busulfan equivalence factor),"antibody to busulfan; FIG. 3, amide concentration x factor = busulfan equivalence",0.107
same,busulfan calibrator concentration giving the same absorbance,"antibody to busulfan; amide at 705 ng/mL, FIG. 3",75 ng/mL
same,busulfan calibrator concentration giving the same absorbance,"antibody to busulfan; amide at 1410 ng/mL, FIG. 3",150 ng/mL
same,busulfan calibrator concentration giving the same absorbance,"antibody to busulfan; amide at 2820 ng/mL, FIG. 3",300 ng/mL
same,busulfan calibrator concentration giving the same absorbance,"antibody to busulfan; amide at 5640 ng/mL, FIG. 3",600 ng/mL
same,busulfan calibrator concentration giving the same absorbance,"antibody to busulfan; amide at 11280 ng/mL, FIG. 3",200 ng/mL
same,busulfan calibrator concentration giving the same absorbance,"antibody to busulfan; amide at 18800 ng/mL, FIG. 3",2000 ng/mL
same,cross-reactivity,"antibody to busulfan; recovery compared to busulfan standard, 5000 ng/mL amide",10.7%
same,relative cross reactivity as compared to busulfan,[2],17.5%
CS(=O)(=O)OCCCCOS(C)(=O)=O [busulfan],half-life,"[3]; aqueous solution, 37° C., aqueous solutions 100, 600, 1200 ng/ml",14 h
same,busulfan decomposed,[3]; room temperature for 5 days,more than 60%
same,decomposition of busulfan calibrator,"[4]; 4° C., calibrator matrix spiked with busulfan",decomposes within a day
same,busulfan decomposed,[4]; room temperature for 5 days,more than 60%
"O=S1(=O)CCC(O)C1 (centres unmarked) [tetrahydrothiophene-3-ol-1,1-dioxide]",reaction or binding of the busulfan antibodies with blocking metabolites,[5],do not substantially react with or bind to
C1CCSC1 [tetrahydrothiophene],reaction or binding of the busulfan antibodies with blocking metabolites,[5],do not substantially react with or bind to
O=S1(=O)CCCC1 [tetramethylene sulfone],reaction or binding of the busulfan antibodies with blocking metabolites,[5],do not substantially react with or bind to
